According to patent US10870634B2, “Histone demethylase inhibitors” (CELGENE QUANTICEL RESEARCH, INC., priority 2016, dated 2020):

Biological target: T1, FBXL10 (Homo sapiens, UniProt Q8NHM5)
T1 construct: purchased BPS Bioscience 50120
T1 sequence (Q8NHM5 1-650): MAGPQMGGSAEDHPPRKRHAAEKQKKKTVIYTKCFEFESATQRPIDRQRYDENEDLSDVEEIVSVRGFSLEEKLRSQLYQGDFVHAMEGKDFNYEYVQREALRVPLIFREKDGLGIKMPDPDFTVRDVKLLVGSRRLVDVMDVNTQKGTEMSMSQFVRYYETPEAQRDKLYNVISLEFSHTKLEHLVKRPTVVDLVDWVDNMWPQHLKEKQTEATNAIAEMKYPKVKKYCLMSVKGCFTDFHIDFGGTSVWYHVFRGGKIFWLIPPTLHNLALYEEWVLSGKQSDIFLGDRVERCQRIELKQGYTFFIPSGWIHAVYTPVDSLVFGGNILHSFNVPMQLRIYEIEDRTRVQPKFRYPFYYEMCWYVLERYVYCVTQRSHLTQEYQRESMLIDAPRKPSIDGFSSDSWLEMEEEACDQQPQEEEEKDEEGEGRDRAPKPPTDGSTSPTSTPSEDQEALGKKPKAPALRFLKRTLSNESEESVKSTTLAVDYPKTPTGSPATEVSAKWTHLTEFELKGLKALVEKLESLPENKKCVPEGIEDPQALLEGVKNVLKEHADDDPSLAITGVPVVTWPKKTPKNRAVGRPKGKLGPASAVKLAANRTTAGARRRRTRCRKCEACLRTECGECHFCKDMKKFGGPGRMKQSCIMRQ
Experiment: FBXL10 in vitro enzyme inhibition assay (AlphaScreen)
Assay type: biochemical
Settings: 0.3 nM FBXL10, 30 nM H3K36me2-biotin peptide, 0.2 μM alpha-ketoglutaric acid
Text: This assay determines the ability of a test compound to inhibit FBXL11, FRXL10, and PHF8 demethylase activity. Baculovirus-expressed FBXL11 (GenBank Accession # NM_012308, AA1-1162) was purchased from BPS Bioscience (Cat #50102). Baculovirus-expressed FBXL10 (GenBank Accession # NM_032590, AA 1-650) was purchased from BPS Bioscience (Cat #50120), Baculovirus-expressed PHF8 (GenBank Accession NP_055922.1) was purchased from Active Motif (Cat #31435).
The ability of test compounds to inhibit the activity of FBXM10 was determined in 384-well plate format under the following reaction conditions: 0.3 nM FBXL10, 30 nM H3K36me2-biotin labeled peptide (Anaspec cat #64442), 0.2 μM alpha-ketoglutaric acid in assay buffer of 50 mM HEPES, pH 7.3, 0.005% Brij35, 0.5 mM TCEP, 0.2 mg/ml BSA, 50 μM sodium L-ascorbate, 5 μM ammonium ironll sulfate. Reaction product was determined quantitatively by AlphaScreen detection after the addition of detection reagents anti-H3K36me1 antibody, AlphaScreen® Streptavidin-coated Donor beads, and AlphaScreen® Protein A Acceptor beads in 50 mM HEPES, pH 7.3, 10 mM NaCl, 0.005% Brij35, 5 mM EDTA, 2 mg/ml BSA to a final 10 μg/ml beads.
The assay reaction was initiated by the following: 3 μl of the mixture of 90 nM H3K36me2-biotin labeled peptide and 0.6 μM alpha-ketoglutaric acid with 3 μl of 11-point serial diluted inhibitor in 3% DMSO were added to each well of 384-well Proxiplate (Perkin Elmer), followed by e addition of 3 μl of 0.9 nM FBXL10 to initiate the reaction. The reaction mixture was incubated at room temp for 1 hr. and terminated by the addition of 3 μl of appropriate dilution of anti-H3K36me1 antibody in 50 mM HEPES, pH 7.3, 10 mM NaCl, 0.005% Brij35, 5 mM EDTA, and 2 mg/ml BSA. […] Plates were read by EnVision Multilabel Reader in AlphaScreen mode after minimum 2 hr incubation at room temp. […]
The ability to inhibit demethylase activity was quantified and the respective IC50 value was determined for substituted triazolylpyridine derivative compounds. […]

| SMILES | IC50 [nM] |
| --- | --- |
| Fc1cnccc1-c1nn[nH]c1C(F)(F)F [Example 1, 3-fluoro-4-[5-(trifluoromethyl)-1H-1,2,3-triazol-4-yl]pyridine] | 100 to 1000 |
| Fc1ccc(Cl)cc1Nc1cnccc1-c1nn[nH]c1C(F)(F)F [Example 2, N-(5-chloro-2-fluorophenyl)-4-[5-(trifluoromethyl)-1H-1,2,3-triazol-4-yl]pyridin-3-amine] | 1000 to 10000 |
| FC(F)(F)c1[nH]nnc1-c1ccncc1NCC1CCCc2ccccc21 (stereo not drawn) [Example 3, N-[(1,2,3,4-tetrahydronaphthalen-1-yl)methyl]-4-[5-(trifluoromethyl)-1H-1,2,3-triazol-4-yl]pyridine-3-amine] | 1000 to 10000 |
